Laboratory results taken from a melting point compilation (Tetko et al.; mined from patent text by program, amines drawn as free bases though some values may be those of a salt).

Structure (SMILES)	melting point [°C]
CCNC(=O)c1c([Si](C)(C)C)ccc(-c2ccccc2)c1Cl	134 to 135
Nc1c(C(=O)CCC(=O)O)cccc1C(=O)c1ccc(Cl)cc1	172 to 177
COc1ccc(C2=N[C@H](c3ccccc3)CO2)cc1C#CCN(O)C(N)=O	190 to 192
CCCNc1cc(C(=O)OCC)cc(S(N)(=O)=O)c1Oc1ccccc1	150 to 151
Cc1nc2c(cc1C(=O)O)CCCCC2	167 to 169
COc1ccc2ccc(S(=O)(=O)N[C@@H](CCCNC(=N)N)C(=O)N3CCC(c4ccccc4)CC3C(=O)O)cc2c1 (some centres not stated)	183 to 186
Fc1ccc(-c2cnn3cnnc3n2)cc1	> 300
COc1ccc(C(=O)NC[C@@H](C(=O)NO)N2CCN(S(C)(=O)=O)CC2)cc1	158
CC(C)C(c1cncnc1C(F)(F)F)N(C)C(=O)N(C)Cc1ccc(Cl)cc1 (configuration not stated)	95 to 98
COC(=O)C(C)NC(=O)C1C(C)(C)CCC1(C)C (configuration not stated)	86.7
COc1ccc(-c2cnc(N)c(Sc3ccccc3)n2)cc1	89 to 90
O=C(O)C1(CC2CCCC2)CC1	42 to 45
CC=COc1cc(N)c(Cl)cc1C(=O)O	136 to 137
NC(=O)C(c1ccccc1)(c1ccccc1)c1ccc(N)cn1	215 to 220
Cc1cc(Nc2ncnc3ccc(-n4ccnc4)cc23)ccc1OCc1ccccn1	208 to 211
CCc1cc(CC)n2nccc2n1	43 to 44
CC(C)(C)c1cc(CC(C)(C)[N+](=O)[O-])cc(C(C)(C)C)c1O	101 to 104
CS(=O)(=O)c1cccc(Cc2cc3cccc(-c4cccc(C(=O)NCC(N)=O)c4)c3s2)c1	189 to 193
CCOC(=O)c1nccn1Cc1ccc(Cl)cc1N	94 to 96
COC(=O)CCCSc1c(Cc2cccc3ccccc23)sc2c1c(=O)n(C)c(=O)n2CC(C)C	111 to 112
Cn1c(C(F)(F)F)ccc(-c2cc(NS(C)(=O)=O)c(Cl)cc2F)c1=O	113 to 114
COc1nc(N)nc(-c2ccc(S(C)(=O)=O)cc2)c1-c1ccc(=O)n(C(C)C)n1	148 to 151
COC(=O)c1cc(O)c(O)c(S(=O)(=O)O)c1	116
CC1(C)OC(=O)Nc2ccc(-c3cccc(F)c3)cc21	181 to 182
CCCCn1c(=O)c2c(NC)n[nH]c2n(CCO)c1=O	248 to 253
CCC(=O)Oc1cc(C(=O)c2c(Cl)cccc2Cl)c(C)cc1OC	142 to 145

Structure (SMILES)	melting point [°C]
CC(C)[C@@H](NS(=O)(=O)c1ccc(-c2ccsc2)cc1)C(=O)O	169
COc1cccc2oc(=O)c3c4c(ccc3c12)NC(C)(C)C=C4C	247 to 248
CC(=O)Nc1ccc(S(=O)(=O)Nc2ccc(C(O)(C(F)(F)F)C(F)(F)F)cc2)cc1	198 to 200
CCOC(=O)c1cn(CC)c2c(F)c(C)c(F)cc2c1=O	147 to 150
CCN(CC)CCOc1ccc(NC(=O)C#Cc2ccc(Cl)cc2Cl)cc1Cl	98 to 100
CCOC(=O)COC(CC)c1ccc(-c2ccc(Cl)cc2)cc1 (configuration not stated)	170 to 172
O=C(O)C=C1c2ccccc2CCc2cc(Cl)ccc21	155 to 175
Cn1ncnc1COc1nc2c(-c3ccccc3)nncc2cc1-c1ccccc1	222 to 223
Cc1nnc2c(Cl)nc3ccccc3n12	215 to 222
CCCCCCCCSc1nc(Nc2cc(C)c(O)c(C(C)(C)C)c2)nc(NC2CC(C)(C)NC(C)(C)C2)n1	133
CCOC(=O)c1cnc2cccc(O)c2c1	240
O=C1c2c(Cl)cccc2-n2cnc(-c3nc(C4CC4)no3)c2[C@@H]2CCN12	140 to 142
CC(=O)c1ccc(-c2ccc(C(=O)NCCCCN3CCC(c4ccc5c(c4O)CCCC5)CC3)cc2)cc1	180 to 185
CC(=O)OCC(=O)C1(O)CCC2C3CCC4=CC(=O)C=CC4(C)C3(F)C(O[Si](C)(C)C)CC21C (configuration not stated)	203 to 204
CC(C)(C)OC(=O)N1CC(CCl)c2ccc([N+](=O)[O-])cc21 (configuration not stated)	111 to 112
COc1ccc(-c2c[nH]c(=S)n2O)cc1	150
Cc1sc2c(Br)c3ccccc3c(-c3cc(Br)c(O)c(NC(=O)OC(C)(C)C)c3)c2c1C	205 to 207
CCCCOC(=O)CN(Cc1ccccc1OC)S(=O)(=O)c1ccc2c(Cl)cnc(Cl)c2c1	106 to 108
CC(C)(O)c1ccc(Cl)c2nc3n(c12)CCCN3c1ccc(Cl)cc1Cl	216 to 218
O=C(O)CCSC(c1ccccc1CCCCCCCCc1ccccc1)C(O)C(=O)O (configuration not stated)	91 to 92
C(=C\c1cc(/C=C/c2ccccc2OCc2ccccn2)[nH]n1)/c1ccc2[nH]ccc2c1	220 to 223
Nc1cccc2c(-c3ccccc3)c([N+](=O)[O-])oc12	164 to 166
Cc1ccc2c(c1)oc1c(C(=O)NC34CC5CC(CC(C5)C3)C4)nn(-c3ccc(Cl)cc3Cl)c12	210 to 212
CC(Cc1c[nH]c2ccc(F)cc12)C(=O)O (configuration not stated)	112 to 113
COc1ccc(C(=O)/C(Cc2cc(OC)c(OC)c(OC)c2)=C(/C(=O)O)c2ccc3c(c2)OCO3)cc1	192 to 193
O=C(O)Cc1ncc2c(n1)-c1ccc(Cl)cc1C(c1ccccc1F)=NC2	138 to 140

Structure (SMILES)	melting point [°C]
ClC(Cl)=C1OC(C(Cl)(Cl)Cl)Oc2ccc(-c3nnn[nH]3)cc21 (configuration not stated)	222
CC1CCN(C(=O)[C@H](CCCNc2ncccn2)NS(=O)(=O)c2ccc3ccccc3c2)CC1	98 to 100
Cc1cc(-n2cccn2)c2cccc(OCc3c(Cl)ccc(S(=O)(=O)N4CCC[C@H]4CO)c3Cl)c2n1	65
CC(C)c1nn(-c2ccc(C(F)(F)F)cn2)cc1C=O	89 to 90
O=CCCc1ccc2oc(Cc3ccc4ccccc4c3)nc2c1	81 to 82
NC(=O)c1cccc(Nc2ccncc2)c1	201 to 203
CC1(C)C(c2ccc(S(C)(=O)=O)cc2)=C(c2ccccc2)C1(C)O (configuration not stated)	114 to 115
COC(=N)N1CCC(c2n[nH]c3cc(Cl)ccc23)CC1	173 to 175
O=C1C2=CSCCN2C(=O)N1c1ccc(Cl)cc1	155 to 158
CCOC(=O)c1cc2cc([N+](=O)[O-])cc(C)c2o1	125 to 126
CN(C)C=NS(=O)(=O)c1ccccc1-c1ccc(Cn2c(-c3ccccc3)nc(Cl)c2C=O)cc1	193
COc1nc(Cl)c(-c2c(F)cc(F)cc2F)c(N[C@@H](C)C(F)(F)F)n1	121 to 129
CCCc1c(C(=O)N(CC)CC)ccc(OC)c1OC	65 to 67
O=C1OC(=O)c2c(Sc3ccc(Cl)c(Cl)c3)cc([N+](=O)[O-])cc21	154 to 157
CCOc1ncnc(OCC)c1NC(N)=S	212
COc1cc(OC)nc(Oc2ccnc3cc(Cl)ccc23)n1	119 to 120
CCCCOc1nc2ccnn2c2ncccc12	99.8
CCOC(=O)C(=CNc1cccc(C#N)c1)C(=O)OCC	109 to 111
O=C(O)CCC(=O)c1ccc(-c2ccc(F)cc2)cc1	174 to 176
O=C1CCC2=C1C(c1ccc(F)c(C(F)(F)F)c1)C1=C(CCS1)N2 (configuration not stated)	254
Cc1nnc(-c2ccc3occ(-c4cnn(Cc5ccccn5)c4)c3c2)o1	134 to 135
CC(=O)C(=O)N1C(C(=O)OCc2ccccc2)CC2CCCCC21 (configuration not stated)	50 to 55
CCN(c1cc2c3c(c1)CCCC3(C)CCC2)c1ncc(C(=O)O)cn1	257 to 258
COc1cc(C=CCN2CCc3nc(N)sc3CC2)cc(OC)c1	114 to 119
CCOC(=O)c1c[nH]nc1-c1cccs1	123 to 124
CC1(C)CC(=NNC(=N)NN=C2CC(C)(C)NC(C)(C)C2)CC(C)(C)N1	163 to 167

Structure (SMILES)	melting point [°C]
COC(=O)c1ccc(Cl)cc1SCCC(=O)O	133 to 136
CCc1cc2c(s1)-n1c(C)nnc1C(CCC(=O)Nc1ccccc1)N=C2c1ccc(Cl)cc1 (configuration not stated)	183 to 185
COc1c(C)cnc(CS(=O)c2nc3ccccc3n2CCl)c1C (configuration not stated)	140 to 141
O=C(O)C1CSC(c2cc([N+](=O)[O-])ccc2OCCO[N+](=O)[O-])N1 (configuration not stated)	99 to 101
CSc1nc2ncccc2c2nnc(SCc3ccccc3)n12	157 to 158
CCn1c(=O)c(C(=O)O)c(O)c2ccc(C)nc21	162 to 165
CC(=O)N1CCC(CCCCC(=O)c2ccc(F)cc2)CC1	98 to 100
COc1ccc(Cn2c(S)nnc2C(N)=O)cc1	240 to 242
Cc1cc(C#N)cnc1Oc1c(Cl)cc(NC(=O)NC(=O)c2c(Cl)cccc2Cl)cc1Cl	245 to 246
COc1ccc(S(=O)(=O)N2CCc3cccc(-c4ccc(C=O)cc4)c32)cc1	152 to 153
Cc1cnc2c(c1)CCCC2Cl (configuration not stated)	177
Fc1ccc(-c2csc(NN=Cc3cn(Cc4ccc(Cl)cc4Cl)c4ccccc34)n2)cc1	198
CCCCNc1ccc(OC)c(Cl)c1Cl	47 to 49
CC(C)(C)OC(=O)N1CCCC[C@@H]1C(=O)c1ccc(Br)cc1	124 to 125
CC(COc1ccccc1C(=O)C(=O)c1ccccc1OCC(C)CN(C)C)CN(C)C (configuration not stated)	69 to 70
O=C(O)[C@H](Cc1c[nH]c2ccccc12)NS(=O)(=O)c1ccc(F)cc1	57 to 60
CN(C)CCN1CCC(Nc2nc3ccccc3n2Cc2ccc(F)cc2)CC1	166
CN1CCN(C2c3ccccc3C=Cc3ccc(Br)cc32)CC1 (configuration not stated)	128 to 130
COC(=O)c1ccc2cc(CCCO)oc2c1	63 to 65
COc1cc(C(C)C)c2c(c1)S(=O)(=O)N(COc1cc(-c3ccccc3)nn1-c1ccccc1)C2=O	62 to 76
COc1ccc2cc(-c3ccnc(N(C)C)n3)cc(NC3CCN(c4ncnc5[nH]nc(Br)c45)CC3)c2c1	167 to 172
COc1cc(C(=O)c2c(F)cccc2F)ccc1O	147 to 149
COc1ccc(CC(C)CC(=O)O)c(C(C)C)c1OC (configuration not stated)	100 to 101
CC(Cl)c1nc2cccnc2[nH]1 (configuration not stated)	132
